Test results from patent US8324227B2, “Thieno[2,3-D]-pyrimidin-4(3H)-one compounds with antifungal properties and process thereof” (FDC Limited, priority 2008, dated 2012).
Values after ≈ are worked out from the molar mass of the structure shown.

Columns and labels:
Assay in all cases: Antifungal susceptibility, MIC by broth macro-dilution method
[1] = system: C. albicans (ATCC 24433); assay type: cell-based, Candida albicans; conditions: end points after 48 hours, NI till x = no inhibition up to x; for MIC: Candida albicans, ATCC24433, RPMI 1640 medium with MOPS buffer, read-out: MIC against fungi, C. albicans (ATCC 24433); for MIC against fungi, C. albicans (ATCC 24433): RPMI 1640 medium with MOPS buffer
Experimental: (§1) In vitro evaluation of antifungal activity was performed by determining the minimum inhibitory concentration (MIC). Anti-fungal susceptibility testing of these anti-fungal compounds was done by broth dilution method using RPMI 1640 medium with MOPS buffer. Known anti-fungal agents like fluconazole and amphotericin-B were used as positive control. End points were determined after 48 hours visually and by using spectrophotometer wherever necessary. Different dilutions were, tried and various sets of experiments performed.

[2] = system: A. niger (ATCC 16404); assay type: cell-based, Aspergillus niger; conditions: end points after 48 hours, NI till x = no inhibition up to x; for MIC: Aspergillus niger, ATCC16404, RPMI 1640 medium with MOPS buffer, read-out: MIC against fungi, A. niger (ATCC 16404); for MIC against fungi, A. niger (ATCC 16404): RPMI 1640 medium with MOPS buffer
Experimental: as §1

[3] = system: F. proliferatum (ATCC 10052); assay type: cell-based, Fusarium proliferatum; conditions: end points after 48 hours, NI till x = no inhibition up to x; for MIC: Fusarium proliferatum, ATCC10052, RPMI 1640 medium with MOPS buffer, read-out: MIC against fungi, F. proliferatum (ATCC 10052); for MIC against fungi, F. proliferatum (ATCC 10052): RPMI 1640 medium with MOPS buffer
Experimental: as §1

| Structure (SMILES) | MIC [1] [µg/mL] | MIC [2] [µg/mL] | MIC [3] [µg/mL] | MIC against fungi, C. albicans (ATCC 24433) [1] | MIC against fungi, A. niger (ATCC 16404) [2] | MIC against fungi, F. proliferatum (ATCC 10052) [3] |
| --- | --- | --- | --- | --- | --- | --- |
| CCCCCc1c(C)sc2ncn(CC(O)(Cn3cncn3)c3ccc(F)cc3F)c(=O)c12 (stereo not drawn) [Compound 1-A08, 3-[2-(2,4-Difluorophenyl)-2-hydroxy-3-[1,2,4]triazol-1-yl-propyl]-6-methyl-5-npentyl-thieno[2,3-d]pyrimidin-4(3H)-one] |  |  |  | 2 to 4 µg/mL | NI till 4 μg/ml | NI till 4 μg/ml |
| CCCCCCc1sc2ncn(CC(O)(Cn3cncn3)c3ccc(F)cc3F)c(=O)c2c1C (stereo not drawn) [Compound 1-A10, 3-[2-(2,4-Difluorophenyl)-2-hydroxy-3-[1,2,4]-triazol-1-yl-propyl]-6-n-hexyl-5-methyl-thieno[2,3-d]pyrimidin-4(3H)-one] | 1 to 2 (≈ 2.05 to 4.1 µM) | > 2 | > 2 |  |  |  |
| O=c1c2c3c(sc2ncn1CC(O)(Cn1cncn1)c1ccc(F)cc1F)CCCC3 (stereo not drawn) [Compound 1-A09, 3-[2-(2,4-Difluorophenyl)-2-hydroxy-3-[1,2,4]-triazol-1-yl-propyl]-5,6,7,8-tetrahydrobenzothieno[2,3-d]pyrimidin-4(3H)-one] | 0.25 to 0.5 (≈ 0.564 to 1.13 µM) | > 8 | > 8 |  |  |  |
| CC(=O)OCCCc1cc2c(=O)n(CC(O)(Cn3cncn3)c3ccc(F)cc3F)cnc2s1 (stereo not drawn) [Compound 1-A26, 3-[2-(2,4-Difluorophenyl)-2-hydroxy-3-[1,2,4]-triazol-1-yl-propyl]-6-(3-acetoxypropyl)-thieno[2,3-d]pyrimidin-4(3H)-one] | 1 to 2 (≈ 2.04 to 4.09 µM) | > 64 | > 64 |  |  |  |
| CC(=O)OCCCCCCCc1cc2c(=O)n(CC(O)(Cn3cncn3)c3ccc(F)cc3F)cnc2s1 (stereo not drawn) [Compound 1-A12, 6-(7-Acetoxyheptyl)-3-[2-(2,4-difluorophenyl)-2-hydroxy-3-[1,2,4]-triazol-1-ylpropyl]-thieno[2,3-d]pyrimidin-4(3H)-one] | 0.12 to 0.25 (≈ 0.22 to 0.458 µM) | > 2 | > 2 |  |  |  |
| O=c1c2cc(CCCCOCc3ccccc3)sc2ncn1CC(O)(Cn1cncn1)c1ccc(F)cc1F (stereo not drawn) [Compound 1-A01, 6-(4-Benzyloxybutyl)-3-[2-(2,4-difluorophenyl)-2-hydroxy-3-[1,2,4]triazol-1-ylpropyl]-thieno[2,3-d]pyrimidin-4(3H)-one] | 0.06 to 0.12 (≈ 0.109 to 0.218 µM) | > 4 | > 4 |  |  |  |
| CCCCCCCc1cc2c(=O)n(CC(O)(Cn3cncn3)c3ccc(F)cc3F)cnc2s1 (stereo not drawn) [Compound 1-A06, 3-[2-(2,4-Difluorophenyl)-2-hydroxy-3-[1,2,4]-triazol-1-yl-propyl]-6-n-heptylthieno[2,3-d]pyrimidin-4(3H)-one] | 0.06 to 0.12 (≈ 0.123 to 0.246 µM) | > 2 | > 2 |  |  |  |
| CCCCc1c(CCC)sc2ncn(CC(O)(Cn3cncn3)c3ccc(F)cc3F)c(=O)c12 (stereo not drawn) [Compound 1-A05, 5-n-Butyl-3-[2-(2,4-difluorophenyl)-2-hydroxy-3-[1,2,4]-triazol-1-yl-propyl]-6-n-propyl-thieno[2,3-d]pyrimidin-4(3H)-one] | 2 to 4 (≈ 4.1 to 8.2 µM) | > 4 | > 4 |  |  |  |
| CCCCCc1sc2ncn(CC(O)(Cn3cncn3)c3ccc(F)cc3F)c(=O)c2c1C (stereo not drawn) [Compound 1-A11, 3-[2-(2,4-Difluorophenyl)-2-hydroxy-3-[1,2,4]triazol-1-yl-propyl]-5-methyl-6-npentyl-thieno[2,3-d]pyrimidin-4(3H)-one] |  |  |  | 1 to 2 µg/mL | NI till 2 μg/ml | NI till 2 μg/ml |
| O=c1c2c3c(sc2ncn1CC(O)(Cn1cncn1)c1ccc(F)cc1F)CCC3 (stereo not drawn) [Compound 1-A07, 3-[2-(2,4-Difluorophenyl)-2-hydroxy-3-[1,2,4]-triazol-1-yl-propyl]-3,5,6,7-tetrahydrocyclopenta[4,5]thieno[2,3-d]pyrimidin-4(3H)-one] |  |  |  | 0.25 to 0.5 µg/mL | NI till 2 μg/ml | NI till 2 μg/ml |
| O=c1c2cc(CCCOCc3ccccc3)sc2ncn1CC(O)(Cn1cncn1)c1ccc(F)cc1F (stereo not drawn) [Compound 1-A02, 6-(3-Benzyloxypropyl)-3-[2-(2,4-difluorophenyl)-2-hydroxy-3-[1,2,4]-triazol-1-ylpropyl]-thieno[2,3-d]pyrimidin-4(3H)-one] | 0.06 to 0.12 (≈ 0.112 to 0.223 µM) | > 4 | > 4 |  |  |  |
| CCCCCCc1cc2c(=O)n(CC(O)(Cn3cncn3)c3ccc(F)cc3F)cnc2s1 (stereo not drawn) [Compound 1-A03, 3-[2-(2,4-Difluorophenyl)-2-hydroxy-3-[1,2,4]-triazol-1-yl-propyl]-6-(n-hexyl)-thieno[2,3-d]pyrimidin-4(3H)-one] | 0.03 to 0.06 (≈ 0.0634 to 0.127 µM) | > 2 | > 2 |  |  |  |

The remaining lines, values ahead:

| MIC [1] [µg/mL] | MIC [2] [µg/mL] | MIC [3] [µg/mL] | MIC against fungi, C. albicans (ATCC 24433) [1] | MIC against fungi, A. niger (ATCC 16404) [2] | MIC against fungi, F. proliferatum (ATCC 10052) [3] | Structure (SMILES) |
| --- | --- | --- | --- | --- | --- | --- |
| 0.06 to 0.12 (≈ 0.144 to 0.287 µM) | > 16 | > 16 |  |  |  | CCc1cc2c(=O)n(CC(O)(Cn3cncn3)c3ccc(F)cc3F)cnc2s1 (stereo not drawn) [Compound 1-A22, 3-[2-(2,4-Difluorophenyl)-2-hydroxy-3-[1,2,4]triazol-1-yl-propyl]-6-ethylthieno[2,3-d]pyrimidin-4(3H)-one] |
|  |  |  | NI till 2 μg/ml | NI till 2 μg/ml | NI till 2 μg/ml | O=c1c2c3c(sc2ncn1CC(O)(Cn1cncn1)c1ccc(F)cc1F)CCCCCCCCCC3 (stereo not drawn) [Compound 1-A19, 3-[2-(2,4-Difluorophenyl)-2-hydroxy-3-[1,2,4]-triazol-1-yl-propyl]3,5,6,7,8,9,10,11,12,13,14-undecahydrocyclododeca[4,5]thieno[2,3-d]pyrimidin-4(3H)-one] |
| 1 to 2 (≈ 2.03 to 4.05 µM) | > 4 | > 4 |  |  |  | Cc1c(Cc2ccccc2)sc2ncn(CC(O)(Cn3cncn3)c3ccc(F)cc3F)c(=O)c12 (stereo not drawn) [Compound 1-A15, 6-Benzyl-3-[2-(2,4-difluorophenyl)-2-hydroxy-3-[1,2,4]-triazol-1-yl-propyl]-5-methyl-thieno[2,3-d]pyrimidin-4(3H)-one] |
|  |  |  | 0.5 to 1 µg/mL | NI till 16 μg/ml | NI till 16 μg/ml | CC(C)(C)OC(=O)NCC(=O)OCCCCc1cc2c(=O)n(CC(O)(Cn3cncn3)c3ccc(F)cc3F)cnc2s1 (stereo not drawn) [Compound 1-A24, 3-[2-(2,4-Difluorophenyl)-2-hydroxy-3-[1,2,4]triazol-1-yl-propyl]-6-(4-N-Bocaminoacetyloxybutyl)-thieno[2,3-d]pyrimidin-4(3H)-one] |
| 0.5 to 1 (≈ 1.01 to 2.03 µM) | > 2 | > 2 |  |  |  | O=c1c2c(CCc3ccccc3)csc2ncn1CC(O)(Cn1cncn1)c1ccc(F)cc1F (stereo not drawn) [Compound 1-A14, 3-[2-(2,4-Difluorophenyl)-2-hydroxy-3-[1,2,4]triazol-1-yl-propyl]-5(2-phenylethyl)-thieno[2,3-d]pyrimidin-4(3H)-one] |
| 0.25 to 0.5 (≈ 0.485 to 0.97 µM) | > 4 | > 4 |  |  |  | CCCCCCCCCc1cc2c(=O)n(CC(O)(Cn3cncn3)c3ccc(F)cc3F)cnc2s1 (stereo not drawn) [Compound 1-A17, 3-[2-(2,4-Difluorophenyl)-2-hydroxy-3-[1,2,4]-triazol-1-yl-propyl]-6-n-nonylthieno[2,3-d]pyrimidin-4(3H)-one] |
| 1 to 2 (≈ 2.17 to 4.33 µM) | > 64 | > 64 |  |  |  | O=c1c2cc(CCCCO)sc2ncn1CC(O)(Cn1cncn1)c1ccc(F)cc1F (stereo not drawn) [Compound 1-A23, 3-[2-(2,4-Difluorophenyl)-2-hydroxy-3-[1,2,4]-triazol-1-yl-propyl]-6-(4-hydroxybutyl)-thieno[2,3-d]pyrimidin-4(3H)-one] |
| 0.12 to 0.25 (≈ 0.238 to 0.496 µM) | > 16 | > 16 |  |  |  | O=c1c2cc(CCCCCCCO)sc2ncn1CC(O)(Cn1cncn1)c1ccc(F)cc1F (stereo not drawn) [Compound 1-A13, 3-[2-(2,4-Difluorophenyl)-2-hydroxy-3-[1,2,4]triazol-1-yl-propyl]-6-(7-hydroxyheptyl)-thieno[2,3-d]pyrimidin-4(3H)-one] |
| 0.06 to 0.12 (≈ 0.139 to 0.278 µM) | > 32 | > 32 |  |  |  | CCCc1cc2c(=O)n(CC(O)(Cn3cncn3)c3ccc(F)cc3F)cnc2s1 (stereo not drawn) [Compound 1-A18, 3-[2-(2,4-Difluorophenyl)-2-hydroxy-3-[1,2,4]-triazol-1-yl-propyl]-6-(n-propyl)-thieno[2,3-d]pyrimidin-4(3H)-one] |
| 0.25 to 1 (≈ 0.816 to 3.27 µM) | 64 to 128 (≈ 209 to 418 µM) | > 128 |  |  |  | OC(Cn1cncn1)(Cn1cncn1)c1ccc(F)cc1F [Fluconazole, reference compound] |
| 2 to 4 (≈ 4.47 to 8.94 µM) | > 128 | > 128 |  |  |  | O=c1c2cc(CCCO)sc2ncn1CC(O)(Cn1cncn1)c1ccc(F)cc1F (stereo not drawn) [Compound 1-A27, 3-[2-(2,4-Difluorophenyl)-2-hydroxy-3-[1,2,4]-triazol-1-yl-propyl]-6-(3-hydroxypropyl)-thieno[2,3-d]pyrimidin-4(3H)-one] |
| 0.25 to 0.5 (≈ 0.62 to 1.24 µM) | > 64 | > 64 |  |  |  | Cc1cc2c(=O)n(CC(O)(Cn3cncn3)c3ccc(F)cc3F)cnc2s1 (stereo not drawn) [Compound 1-A28, 3-[2-(2,4-Difluorophenyl)-2-hydroxy-3-[1,2,4]-triazol-1-yl-propyl]-6-methylthieno[2,3-d]pyrimidin-4(3H)-one] |
| 4 to 8 (≈ 7.71 to 15.4 µM) | > 8 | > 8 |  |  |  | NCC(=O)OCCCCc1cc2c(=O)n(CC(O)(Cn3cncn3)c3ccc(F)cc3F)cnc2s1 (stereo not drawn) [Compound 1-A25, 3-[2-(2,4-Difluorophenyl)-2-hydroxy-3-[1,2,4]-triazol-1-yl-propyl]-6-(4-aminoacetyloxybutyl)-thieno[2,3-d]pyrimidin-4(3H)-one] |
